Literature values, collected in article PMC3499999, “Advances in the Treatment of Malaria” (Mediterranean Journal of Hematology and Infectious Diseases, 2012).

Columns and labels:
[1] = parameters: method as in PMID 20863871; conditions: animals, only for long drug exposure; artemether and arteether intramuscularly, artelinic acid orally
[2] = parameters: method as in PMID 10661809; conditions: high intramuscular doses, oil-based, beagle dogs
P. falciparum = test system: P. falciparum; parameters: method as in earlier work; conditions: 3-days course
[3] = parameters: method as in PMID 22540954
severe malaria [4] = conditions: artesunate versus quinine, systematic reviews, regardless of age and geographic differences
severe malaria [5] = test system: severe malaria; parameters: method as in PMID 19059639; conditions: rectal, over placebo, p=0.0013
[6] = not given; remark: listed apart in the source
[7] = parameters: method as in PMID 17461742
[8] = in vivo

## CCO[C@H]1O[C@@H]2O[C@@]3(C)CC[C@H]4[C@H](C)CC[C@@H]([C@H]1C)[C@@]24OO3 [arteether]
[1]
  neurotoxicity: Fatal neurotoxicity
[2]
  QTc prolongation: reported at significant level

## C[C@H]1[C@@H](OCc2ccc(C(=O)O)cc2)O[C@@H]2O[C@@]3(C)CC[C@H]4[C@H](C)CC[C@@H]1[C@@]24OO3 [artelinic acid]
[1]
  neurotoxicity: Fatal neurotoxicity

## CO[C@H]1O[C@@H]2O[C@@]3(C)CC[C@H]4[C@H](C)CC[C@@H]([C@H]1C)[C@@]24OO3 [artemether]
other
  half-life: 2 to 4 h
[1]
  neurotoxicity: Fatal neurotoxicity
[2]
  QTc prolongation: reported at significant level

## C[C@@H]1CC[C@H]2[C@@H](C)C(=O)O[C@@H]3O[C@@]4(C)CC[C@@H]1[C@]32OO4 [artemisinin]
P. falciparum
  reduction of parasite burden: 90%

## C[C@H]1[C@H](OC(=O)CCC(=O)O)O[C@@H]2O[C@@]3(C)CC[C@H]4[C@H](C)CC[C@@H]1[C@@]24OO3 [artesunate]
other
  half-life: < 1 h
[3]
  median elimination T ½: 0.25 [0.11 – 1.82] hours
Severe malaria [4]
  case fatality rate, RR: 0.71
Severe malaria [5]
  death or permanent disability, RR: 0.49

## COc1cc(NC(C)CCCN/C(C)=C2\CCOC2=O)c2ncccc2c1 (stereo not drawn) [buloquine]
[6]
  oxidative toxicity compared with primaquine: less oxidative toxicity

## COc1cc(NC(C)CCCN)c2ncccc2c1 (stereo not drawn) [primaquine]
[6]; patients with glucose-6-phosphate dehydrogenase deficiency
  main safety concern: risk of severe intravascular haemolysis

## COc1cc(C)c2c(Oc3cccc(C(F)(F)F)c3)c(OC)cc(NC(C)CCCN)c2n1 (stereo not drawn) [tefenoquine, tafenoquine]
[7]
  half-life compared with primaquine: longer half-life

## Atovaquone-proguanil
[8]
  risk of birth defects relative to the general population: ≤ 3 times
